Data taken from ChEMBL document CHEMBL1148993, “UV-mediated genotoxicity of furanoquinoline and of certain tryptophan-derived alkaloids” (J Nat Prod, 1983).

Legend:
Escherichia coli [1] = experiment: Phototoxicity against Escherichia coli at 10 ug/disk after irradiation with W/m'2 UV light; type: functional; conditions: light or radiation study, read-out: IZ
Escherichia coli [2] = experiment: Phototoxicity against Escherichia coli at 10 ug/disk in dark; type: functional; conditions: light or radiation study, read-out: IZ
Pseudomonas aeruginosa [3] = experiment: Phototoxicity against Pseudomonas aeruginosa at 10 ug/disk after irradiation with W/m'2 UV light; type: functional; conditions: light or radiation study, read-out: IZ
Pseudomonas aeruginosa [4] = experiment: Phototoxicity against Pseudomonas aeruginosa at 10 ug/disk in dark; type: functional; conditions: light or radiation study, read-out: IZ
Pseudomonas fluorescens [5] = experiment: Phototoxicity against Pseudomonas fluorescens at 10 ug/disk after irradiation with W/m'2 UV light; type: functional; conditions: light or radiation study, read-out: IZ
Pseudomonas fluorescens [6] = experiment: Phototoxicity against Pseudomonas fluorescens at 10 ug/disk in dark; type: functional; conditions: light or radiation study, read-out: IZ
Bacillus subtilis [7] = experiment: Phototoxicity against Bacillus subtilis at 10 ug/disk after irradiation with W/m'2 UV light; type: functional; conditions: light or radiation study, read-out: IZ
Bacillus subtilis [8] = experiment: Phototoxicity against Bacillus subtilis at 10 ug/disk in dark; type: functional; conditions: light or radiation study, read-out: IZ
Enterococcus faecalis [9] = experiment: Phototoxicity against Streptococcus faecalis at 10 ug/disk after irradiation with W/m'2 UV light; type: functional; conditions: light or radiation study, read-out: IZ
Enterococcus faecalis [10] = experiment: Phototoxicity against Streptococcus faecalis at 10 ug/disk in dark; type: functional; conditions: light or radiation study, read-out: IZ
Staphylococcus aureus [11] = experiment: Phototoxicity against Staphylococcus aureus at 10 ug/disk after irradiation with W/m'2 UV light; type: functional; conditions: light or radiation study, read-out: IZ
Staphylococcus aureus [12] = experiment: Phototoxicity against Staphylococcus aureus at 10 ug/disk in dark; type: functional; conditions: light or radiation study, read-out: IZ
Candida albicans [13] = experiment: Phototoxicity against Candida albicans at 10 ug/disk after irradiation with W/m'2 UV light; type: functional; conditions: light or radiation study, read-out: IZ
Candida albicans [14] = experiment: Phototoxicity against Candida albicans at 10 ug/disk in dark; type: functional; conditions: light or radiation study, read-out: IZ
Saccharomyces cerevisiae [15] = experiment: Phototoxicity against Saccharomyces cerevisiae at 10 ug/disk after irradiation with W/m'2 UV light; type: functional; conditions: light or radiation study, read-out: IZ
Saccharomyces cerevisiae [16] = experiment: Phototoxicity against Saccharomyces cerevisiae at 10 ug/disk in dark; type: functional; conditions: light or radiation study, read-out: IZ
CHO [17] = experiment: Genotoxicity in CHO cells assessed as chromosomal aberrations at 125 ppm after 60 mins in dark followed by 5 W/m'2 UV irradiation for 30 mins; type: toxicity, cell-based, Cricetulus griseus; conditions: chinese hamster, 0.5 h
CHO [18] = experiment: Genotoxicity in CHO cells assessed as chromosomal aberrations at 125 ppm after 90 mins in dark; type: toxicity, cell-based, Cricetulus griseus; conditions: chinese hamster, 1.5 h
CHO [19] = experiment: Genotoxicity in CHO cells assessed as chromosomal aberrations at 62.5 ppm after 60 mins in dark followed by 5 W/m'2 UV irradiation for 30 mins; type: toxicity, cell-based, Cricetulus griseus; conditions: chinese hamster, 0.5 h
CHO [20] = experiment: Genotoxicity in CHO cells assessed as chromosomal aberrations at 31.2 ppm after 60 mins in dark followed by 5 W/m'2 UV irradiation for 30 mins; type: toxicity, cell-based, Cricetulus griseus; conditions: chinese hamster, 0.5 h
CHO [21] = experiment: Genotoxicity in CHO cells assessed as chromosomal aberrations at 15.6 ppm after 60 mins in dark followed by 5 W/m'2 UV irradiation for 30 mins; type: toxicity, cell-based, Cricetulus griseus; conditions: chinese hamster, 0.5 h
CHO [22] = experiment: Genotoxicity in CHO cells assessed as chromosomal aberrations at 7.8 ppm after 60 mins in dark followed by 5 W/m'2 UV irradiation for 30 mins; type: toxicity, cell-based, Cricetulus griseus; conditions: chinese hamster, 0.5 h
CHO [23] = experiment: Genotoxicity in CHO cells assessed as mitotic inhibition at 3.9 ppm after 60 mins in dark followed by 5 W/m'2 UV irradiation for 30 mins; type: toxicity, cell-based, Cricetulus griseus; conditions: chinese hamster, 0.5 h
CHO [24] = experiment: Genotoxicity in CHO cells assessed as chromosomal aberrations at 1.9 ppm after 60 mins in dark followed by 5 W/m'2 UV irradiation for 30 mins; type: toxicity, cell-based, Cricetulus griseus; conditions: chinese hamster, 0.5 h
CHO [25] = experiment: Genotoxicity in CHO cells assessed as chromosomal aberrations at 50 ppm after 60 mins in dark followed by 5 W/m'2 UV irradiation for 30 mins; type: toxicity, cell-based, Cricetulus griseus; conditions: chinese hamster
CHO [26] = experiment: Genotoxicity in CHO cells assessed as chromosomal aberrations at 50 ppm after 90 mins in dark; type: toxicity, cell-based, Cricetulus griseus; conditions: chinese hamster, 1.5 h
CHO [27] = experiment: Genotoxicity in CHO cells assessed as chromosomal aberrations at 25 ppm after 60 mins in dark followed by 5 W/m'2 UV irradiation for 30 mins; type: toxicity, cell-based, Cricetulus griseus; conditions: chinese hamster
CHO [28] = experiment: Genotoxicity in CHO cells assessed as chromosomal aberrations at 12.5 ppm after 60 mins in dark followed by 5 W/m'2 UV irradiation for 30 mins; type: toxicity, cell-based, Cricetulus griseus; conditions: chinese hamster, 0.5 h
CHO [29] = experiment: Genotoxicity in CHO cells assessed as chromosomal aberrations at 6.2 ppm after 60 mins in dark followed by 5 W/m'2 UV irradiation for 30 mins; type: toxicity, cell-based, Cricetulus griseus; conditions: chinese hamster, 0.5 h
CHO [30] = experiment: Genotoxicity in CHO cells assessed as chromosomal aberrations at 3.1 ppm after 60 mins in dark followed by 5 W/m'2 UV irradiation for 30 mins; type: toxicity, cell-based, Cricetulus griseus; conditions: chinese hamster, 0.5 h
CHO [31] = experiment: Genotoxicity in CHO cells assessed as chromosomal aberrations at 0.8 ppm after 60 mins in dark followed by 5 W/m'2 UV irradiation for 30 mins; type: toxicity, cell-based, Cricetulus griseus; conditions: chinese hamster, 0.5 h
CHO [32] = experiment: Genotoxicity in CHO cells assessed as chromosomal aberrations at 0.4 ppm after 60 mins in dark followed by 5 W/m'2 UV irradiation for 30 mins; type: toxicity, cell-based, Cricetulus griseus; conditions: chinese hamster, 0.5 h
CHO [33] = experiment: Genotoxicity in CHO cells assessed as chromosomal aberrations at 0.3 ppm after 90 mins in dark; type: toxicity, cell-based, Cricetulus griseus; conditions: chinese hamster, 1.5 h
CHO [34] = experiment: Genotoxicity in CHO cells assessed as mitotic inhibition at 0.2 ppm after 60 mins in dark followed by 5 W/m'2 UV irradiation for 30 mins; type: toxicity, cell-based, Cricetulus griseus; conditions: chinese hamster, 0.5 h
CHO [35] = experiment: Genotoxicity in CHO cells assessed as chromosomal aberrations at 0.1 ppm after 60 mins in dark followed by 5 W/m'2 UV irradiation for 30 mins; type: toxicity, cell-based, Cricetulus griseus; conditions: chinese hamster, 0.5 h
CHO [36] = experiment: Genotoxicity in CHO cells assessed as chromosomal aberrations at 0.04 ppm after 60 mins in dark followed by 5 W/m'2 UV irradiation for 30 mins; type: toxicity, cell-based, Cricetulus griseus; conditions: chinese hamster, 0.5 h
CHO [37] = experiment: Genotoxicity in CHO cells assessed as chromosomal aberrations at 0.02 ppm after 60 mins in dark followed by 5 W/m'2 UV irradiation for 30 mins; type: toxicity, cell-based, Cricetulus griseus; conditions: chinese hamster, 0.5 h
CHO [38] = experiment: Phototoxicity against CHO cells assessed as mitotic inhibition at 12 ppm after UV irradiation; type: cell-based, Cricetulus griseus; conditions: chinese hamster
CHO [39] = experiment: Genotoxicity in CHO cells assessed as chromosomal aberrations at 100 ppm after 60 mins in dark followed by 5 W/m'2 UV irradiation for 30 mins; type: toxicity, cell-based, Cricetulus griseus; conditions: chinese hamster, 0.5 h
CHO [40] = experiment: Genotoxicity in CHO cells assessed as chromosomal aberrations at 100 ppm after 90 mins in dark; type: toxicity, cell-based, Cricetulus griseus; conditions: chinese hamster, 1.5 h
CHO [41] = experiment: Genotoxicity in CHO cells assessed as mitotic inhibition at 6.3 ppm after 60 mins in dark followed by 5 W/m'2 UV irradiation for 30 mins; type: toxicity, cell-based, Cricetulus griseus; conditions: chinese hamster, 0.5 h
CHO [42] = experiment: Phototoxicity against CHO cells at 25 ppm; type: cell-based, Cricetulus griseus; conditions: chinese hamster

Row | SMILES | zone of inhibition at 10 µg/disc (Escherichia coli [1]) [mm] | zone of inhibition at 10 µg/disc (Escherichia coli [2]) [mm] | zone of inhibition at 10 µg/disc (Pseudomonas aeruginosa [3]) [mm] | zone of inhibition at 10 µg/disc (Pseudomonas aeruginosa [4]) [mm] | zone of inhibition at 10 µg/disc (Pseudomonas fluorescens [5]) [mm] | zone of inhibition at 10 µg/disc (Pseudomonas fluorescens [6]) [mm] | zone of inhibition at 10 µg/disc (Bacillus subtilis [7]) [mm] | zone of inhibition at 10 µg/disc (Bacillus subtilis [8]) [mm] | zone of inhibition at 10 µg/disc (Enterococcus faecalis [9]) [mm] | zone of inhibition at 10 µg/disc (Enterococcus faecalis [10]) [mm] | zone of inhibition at 10 µg/disc (Staphylococcus aureus [11]) [mm] | zone of inhibition at 10 µg/disc (Staphylococcus aureus [12]) [mm] | zone of inhibition at 10 µg/disc (Candida albicans [13]) [mm] | zone of inhibition at 10 µg/disc (Candida albicans [14]) [mm] | zone of inhibition at 10 µg/disc (Saccharomyces cerevisiae [15]) [mm] | zone of inhibition at 10 µg/disc (Saccharomyces cerevisiae [16]) [mm] | Activity (CHO [25]) | Activity (CHO [27]) | Activity (CHO [28]) | other results
1 | O=c1ccc2nccc3c4ccccc4n1c23 [CANTHIN-6-ONE] | 7 | 0 | 0 | 0 | 0 | 0 | 8.6 | 16 | 0 | 0 | 10 | 0 | 13 | 9 | 13 | 9 |  |  |  | Activity (CHO [17]): Toxic; Activity (CHO [18]): 0%; Activity (CHO [19]): Toxic; Activity (CHO [20]): Toxic; Activity (CHO [21]): Toxic; Activity (CHO [22]): Toxic; Activity (CHO [23]): Active; Activity (CHO [24]): 22.2%
2 | COc1ccc2c(OC)c3ccoc3nc2c1OC [SKIMMIANINE] |  |  |  |  |  |  |  |  |  |  |  |  |  |  |  |  | Toxic | 50% | 61.9% | Activity (CHO [26]): 0%; Activity (CHO [29]): 59.9%; Activity (CHO [30]): 45%; Activity (CHO [31]): 10.9%; Activity (CHO [32]): 3%
3 | COc1c2occc2cc2ccc(=O)oc12 [METHOXSALEN] | 14 | 0 | 0 | 0 | 0 | 0 | 14 | 0 | 14 | 0 | 18 | 0 | 14 | 0 | 19 | 0 |  |  |  | Activity (CHO [33]): 0%; Activity (CHO [34]): Active; Activity (CHO [35]): 63.6%; Activity (CHO [36]): 38.8%; Activity (CHO [37]): 7.1%
4 | C=C[C@H]1C[N@@]2CC[C@H]1C[C@H]2[C@H](O)c1ccnc2ccc(OC)cc12 [QUININE] |  |  |  |  |  |  |  |  |  |  |  |  |  |  |  |  | Toxic | Toxic | Toxic | Activity (CHO [38]): Active; Activity (CHO [39]): Toxic; Activity (CHO [40]): 0%; Activity (CHO [41]): Active; Activity (CHO [42]): Active
